Reference: PubChem BioAssay AID248 (DTP/NCI, 2004)
Several values for one entry are separate records, joined by “and”; a condition that tells them apart may be missing. Identical values can stand only once. Inconclusive results and toxic doses are left out.

System: L1210 leukemia ip in BDF1 mice, survival T/C
Experiment: NCI In Vivo Anticancer Drug Screen. Data for tumor model L1210 Leukemia (intraperitoneal) in B6D2F1 (BDF1) mice
Settings: higher = longer survival
Outline: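 Mice bearing the transplanted tumor received compound or vehicle. Survival of the treated group was divided by that of the vehicle-treated control group to give the ratio.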

Compound: O=C(CCBr)N1CCN(C(=O)CCBr)CC1
- T/C (endpoint: mean survival time, dose: 1.33 mg/kg/injection, schedule: Q#B X Z (ip), vehicle: carboxymethylcellulose (CMC)): 86 % of control
- T/C (endpoint: mean survival time, dose: 2.66 mg/kg/injection, schedule: Q#B X Z (ip), vehicle: carboxymethylcellulose (CMC)): 108 % of control
- T/C (endpoint: mean survival time, dose: 3.2 mg/kg/injection, schedule: Q01DX Z (oral), vehicle: carboxymethylcellulose (CMC)): 100 % of control
- T/C (endpoint: mean survival time, dose: 5.33 mg/kg/injection, schedule: Q#B X Z (ip), vehicle: carboxymethylcellulose (CMC)): 103 % of control
- T/C (endpoint: mean survival time, dose: 5.5 mg/kg/injection, schedule: Q07DX006 (ip), vehicle: carboxymethylcellulose (CMC)): 111 % of control
- T/C (endpoint: mean survival time, dose: 5.6 mg/kg/injection, schedule: Q01DX Z (ip), vehicle: methylcellulose (MC)): 120 % of control
- T/C (endpoint: mean survival time, dose: 10.0 mg/kg/injection, schedule: Q01DX009 (ip), vehicle: saline): 94 % of control and 102 % of control
- T/C (endpoint: mean survival time, dose: 10.6 mg/kg/injection, schedule: Q01DX Z (ip), vehicle: carboxymethylcellulose (CMC)): 108 % of control and 117 % of control
- T/C (endpoint: mean survival time, dose: 10.66 mg/kg/injection, schedule: Q#B X Z (ip), vehicle: carboxymethylcellulose (CMC)): 86 % of control
- T/C (endpoint: mean survival time, dose: 10.9 mg/kg/injection, schedule: Q07DX006 (ip), vehicle: carboxymethylcellulose (CMC)): 90 % of control
- T/C (endpoint: mean survival time, dose: 11.25 mg/kg/injection, schedule: Q01DX Z (ip), vehicle: methylcellulose (MC)): 115 % of control
- T/C (endpoint: mean survival time, dose: 12.0 mg/kg/injection, schedule: Q01DX006 (iv), vehicle: carboxymethylcellulose (CMC)): 113 % of control
- T/C (endpoint: mean survival time, dose: 12.0 mg/kg/injection, schedule: Q01DX Z (im), vehicle: carboxymethylcellulose (CMC)): 101 % of control
- T/C (endpoint: mean survival time, dose: 12.0 mg/kg/injection, schedule: Q01DX Z (ip), vehicle: carboxymethylcellulose (CMC)): 95 % of control
- T/C (endpoint: mean survival time, dose: 12.0 mg/kg/injection, schedule: Q01DX Z (sc), vehicle: carboxymethylcellulose (CMC)): 94 % of control
- T/C (endpoint: mean survival time, dose: 12.5 mg/kg/injection, schedule: Q01DX Z (oral), vehicle: carboxymethylcellulose (CMC)): 110 % of control
- T/C (endpoint: mean survival time, dose: 16.0 mg/kg/injection, schedule: Q01DX Z (ip), vehicle: carboxymethylcellulose (CMC)): 111 % of control
- T/C (endpoint: mean survival time, dose: 18.0 mg/kg/injection, schedule: Q01DX009 (ip), vehicle: saline): 155 % of control and 158 % of control
- T/C (endpoint: mean survival time, dose: 20.0 mg/kg/injection, schedule: Q01DX009 (ip), vehicle: saline): 103 % of control and 108 % of control
- T/C (endpoint: mean survival time, dose: 21.8 mg/kg/injection, schedule: Q07DX006 (ip), vehicle: carboxymethylcellulose (CMC)): 106 % of control
- T/C (endpoint: mean survival time, dose: 24.0 mg/kg/injection, schedule: Q01DX Z (ip), vehicle: carboxymethylcellulose (CMC)): 111 % of control
- T/C (endpoint: mean survival time, dose: 25.0 mg/kg/injection, schedule: Q01DX001 (ip), vehicle: saline): 99 % of control and 106 % of control and 111 % of control
- T/C (endpoint: mean survival time, dose: 25.0 mg/kg/injection, schedule: Q01DX006 (iv), vehicle: carboxymethylcellulose (CMC)): 94 % of control
- T/C (endpoint: mean survival time, dose: 25.0 mg/kg/injection, schedule: Q01DX Z (im), vehicle: carboxymethylcellulose (CMC)): 94 % of control
- T/C (endpoint: mean survival time, dose: 25.0 mg/kg/injection, schedule: Q01DX Z (ip), vehicle: carboxymethylcellulose (CMC)): 98 % of control
- T/C (endpoint: mean survival time, dose: 25.0 mg/kg/injection, schedule: Q01DX Z (oral), vehicle: carboxymethylcellulose (CMC)): 120 % of control
- T/C (endpoint: mean survival time, dose: 25.0 mg/kg/injection, schedule: Q01DX Z (sc), vehicle: carboxymethylcellulose (CMC)): 103 % of control
- T/C (endpoint: mean survival time, dose: 36.0 mg/kg/injection, schedule: Q01DX009 (ip), vehicle: saline): 160 % of control and 186 % of control
- T/C (endpoint: mean survival time, dose: 36.0 mg/kg/injection, schedule: Q01DX Z (ip), vehicle: carboxymethylcellulose (CMC)): 150 % of control
- T/C (endpoint: mean survival time, dose: 37.0 mg/kg/injection, schedule: Q03DX008 (ip), vehicle: carboxymethylcellulose (CMC)): 104 % of control
- T/C (endpoint: mean survival time, dose: 45.0 mg/kg/injection, schedule: Q01DX Z (ip), vehicle: methylcellulose (MC)): 172 % of control
- T/C (endpoint: mean survival time, dose: 50.0 mg/kg/injection, schedule: Q01DX001 (ip), vehicle: saline): 110 % of control and 111 % of control and 116 % of control
- T/C (endpoint: mean survival time, dose: 50.0 mg/kg/injection, schedule: Q01DX006 (iv), vehicle: carboxymethylcellulose (CMC)): 113 % of control
- T/C (endpoint: mean survival time, dose: 50.0 mg/kg/injection, schedule: Q01DX Z (im), vehicle: carboxymethylcellulose (CMC)): 110 % of control
- T/C (endpoint: mean survival time, dose: 50.0 mg/kg/injection, schedule: Q01DX Z (ip), vehicle: carboxymethylcellulose (CMC)): 123 % of control
- T/C (endpoint: mean survival time, dose: 50.0 mg/kg/injection, schedule: Q01DX Z (sc), vehicle: carboxymethylcellulose (CMC)): 116 % of control
- T/C (endpoint: mean survival time, dose: 54.0 mg/kg/injection, schedule: Q01DX009 (ip), vehicle: saline): 183 % of control and 208 % of control
- T/C (endpoint: mean survival time, dose: 81.0 mg/kg/injection, schedule: Q01DX Z (ip), vehicle: carboxymethylcellulose (CMC)): 117 % of control
- T/C (endpoint: mean survival time, dose: 90.0 mg/kg/injection, schedule: Q01DX Z (ip), vehicle: methylcellulose (MC)): 155 % of control
- T/C (endpoint: mean survival time, dose: 100.0 mg/kg/injection, schedule: Q01DX001 (ip), vehicle: carboxymethylcellulose (CMC)): 103 % of control and 110 % of control
- T/C (endpoint: mean survival time, dose: 100.0 mg/kg/injection, schedule: Q01DX001 (ip), vehicle: saline): 121 % of control
- T/C (endpoint: mean survival time, dose: 100.0 mg/kg/injection, schedule: Q01DX006 (iv), vehicle: carboxymethylcellulose (CMC)): 123 % of control
- T/C (endpoint: mean survival time, dose: 100.0 mg/kg/injection, schedule: Q01DX Z (ip), vehicle: carboxymethylcellulose (CMC)): 155 % of control
- T/C (endpoint: mean survival time, dose: 100.0 mg/kg/injection, schedule: Q01DX Z (oral), vehicle: carboxymethylcellulose (CMC)): 162 % of control
- T/C (endpoint: mean survival time, dose: 100.0 mg/kg/injection, schedule: Q04DX003 (ip), vehicle: saline): 111 % of control
- T/C (endpoint: mean survival time, dose: 120.0 mg/kg/injection, schedule: Q01DX009 (ip), vehicle: saline): 202 % of control and 218 % of control
- T/C (endpoint: mean survival time, dose: 150.0 mg/kg/injection, schedule: Q03DX008 (ip), vehicle: carboxymethylcellulose (CMC)): 205 % of control
- T/C (endpoint: mean survival time, dose: 200.0 mg/kg/injection, schedule: Q01DX001 (ip), vehicle: carboxymethylcellulose (CMC)): 108 % of control and 124 % of control
- T/C (endpoint: mean survival time, dose: 200.0 mg/kg/injection, schedule: Q01DX Z (im), vehicle: carboxymethylcellulose (CMC)): 158 % of control
- T/C (endpoint: mean survival time, dose: 200.0 mg/kg/injection, schedule: Q01DX Z (ip), vehicle: carboxymethylcellulose (CMC)): 162 % of control
- T/C (endpoint: mean survival time, dose: 200.0 mg/kg/injection, schedule: Q01DX Z (oral), vehicle: carboxymethylcellulose (CMC)): 90 % of control
- T/C (endpoint: mean survival time, dose: 200.0 mg/kg/injection, schedule: Q01DX Z (sc), vehicle: carboxymethylcellulose (CMC)): 158 % of control
- T/C (endpoint: mean survival time, dose: 300.0 mg/kg/injection, schedule: Q03DX008 (ip), vehicle: carboxymethylcellulose (CMC)): 181 % of control
- T/C (endpoint: mean survival time, dose: 350.0 mg/kg/injection, schedule: Q07DX004 (ip), vehicle: carboxymethylcellulose (CMC)): 215 % of control
- T/C (endpoint: mean survival time, dose: 400.0 mg/kg/injection, schedule: Q01DX001 (ip), vehicle: carboxymethylcellulose (CMC)): 102 % of control
- T/C (endpoint: mean survival time, dose: 400.0 mg/kg/injection, schedule: Q01DX001 (ip), vehicle: saline): 114 % of control
- T/C (endpoint: mean survival time, dose: 400.0 mg/kg/injection, schedule: Q01DX Z (im), vehicle: carboxymethylcellulose (CMC)): 100 % of control
- T/C (endpoint: mean survival time, dose: 400.0 mg/kg/injection, schedule: Q01DX Z (ip), vehicle: carboxymethylcellulose (CMC)): 94 % of control
- T/C (endpoint: mean survival time, dose: 400.0 mg/kg/injection, schedule: Q01DX Z (sc), vehicle: carboxymethylcellulose (CMC)): 98 % of control
- T/C (endpoint: mean survival time, dose: 400.0 mg/kg/injection, schedule: Q04DX003 (ip), vehicle: saline): 153 % of control and 180 % of control
- T/C (endpoint: mean survival time, dose: 600.0 mg/kg/injection, schedule: Q03DX003 (ip), vehicle: carboxymethylcellulose (CMC)): 90 % of control
- T/C (endpoint: mean survival time, dose: 700.0 mg/kg/injection, schedule: Q07DX004 (ip), vehicle: carboxymethylcellulose (CMC)): 100 % of control
- T/C (endpoint: mean survival time, dose: 800.0 mg/kg/injection, schedule: Q01DX001 (ip), vehicle: carboxymethylcellulose (CMC)): 98 % of control and 116 % of control
- T/C (endpoint: median survival time, dose: 10.0 mg/kg/injection, schedule: Q01DX009 (ip), vehicle: saline): 105 % of control and 87 % of control
- T/C (endpoint: median survival time, dose: 40.0 mg/kg/injection, schedule: Q01DX009 (ip), vehicle: saline): 150 % of control
- T/C (endpoint: median survival time, dose: 80.0 mg/kg/injection, schedule: Q01DX009 (ip), vehicle: saline): 181 % of control and 183 % of control
